Measurements from patent US20110105515A1, “TARGETING THE ONCOPROTEIN NUCLEOPHOSMIN” (President and Fellows of Harvard College, priority 2007, published 2011).

Columns and labels:
HL-60(TB) = HL-60(TB) (Leukemia), 48 hours, SRB
MOLT-4 = MOLT-4 (Leukemia), 48 hours, SRB
SR = SR (Leukemia), 48 hours, SRB
NCI-H460 = NCI-H460 (Non-Small Cell Lung Cancer), 48 hours, SRB
NCI-H522 = NCI-H522 (Non-Small Cell Lung Cancer), 48 hours, SRB
COLO 205 = COLO 205 (Colon Cancer), 48 hours, SRB
HCC-2998 = HCC-2998 (Colon Cancer), 48 hours, SRB
HCT-116 = HCT-116 (Colon Cancer), 48 hours, SRB
HCT-15 = HCT-15 (Colon Cancer), 48 hours, SRB
SW-620 = SW-620 (Colon Cancer), 48 hours, SRB
SF-295 = SF-295 (CNS Cancer), 48 hours, SRB
SF-539 = SF-539 (CNS Cancer), 48 hours, SRB
SNB-19 = SNB-19 (CNS Cancer), 48 hours, SRB
U251 = U251 (CNS Cancer), 48 hours, SRB
LOX IMVI = LOX IMVI (Melanoma), 48 hours, SRB
M14 = M14 (Melanoma), 48 hours, SRB
UACC-257 = UACC-257 (Melanoma), 48 hours, SRB
OVCAR-4 = OVCAR-4 (Ovarian Cancer), 48 hours, SRB
OVCAR-8 = OVCAR-8 (Ovarian Cancer), 48 hours, SRB
786-0 = 786-0 (Renal Cancer), 48 hours, SRB
SN12C = SN12C (Renal Cancer), 48 hours, SRB
UO-31 = UO-31 (Renal Cancer), 48 hours, SRB
DU-145 = DU-145 (Prostate Cancer), 48 hours, SRB
MCF7 = MCF7 (Breast Cancer), 48 hours, SRB
NCI/ADR-RES = NCI/ADR-RES (Breast Cancer), 48 hours, SRB
HS578T = HS578T (Breast Cancer), 48 hours, SRB
MDA-MB-435 = MDA-MB-435 (Breast Cancer), 48 hours, SRB
BT-549 = BT-549 (Breast Cancer), 48 hours, SRB
T-47D = T-47D (Breast Cancer), 48 hours, SRB
MDA-MB-468 = MDA-MB-468 (Breast Cancer), 48 hours, SRB

For Cc1cc(C)cc(-c2ccc3c(c2)[N+]([O-])=C2C3=C[C@@]34NC(=O)C5(CCCN5C3=O)CC4C2(C)C)c1 (stereo partly drawn) [Biphenyl Analogue], the TGI (HL-60(TB)) was 655 nM, the TGI (MOLT-4) was 604 nM and the TGI (SR) was 407 nM. The TGI (NCI-H460) was 1180 nM, the TGI (NCI-H522) was 297 nM and the TGI (COLO 205) was 259 nM. The TGI (HCC-2998) was 1060 nM, the TGI (HCT-116) was 377 nM and the TGI (HCT-15) was 322 nM. The TGI (SW-620) was 349 nM, the TGI (SF-295) was 1540 nM and the TGI (SF-539) was 445 nM. The TGI (SNB-19) was 950 nM, the TGI (U251) was 273 nM and the TGI (LOX IMVI) was 273 nM. For the same compound, the TGI (M14) was 556 nM, the TGI (UACC-257) was 1360 nM and the TGI (OVCAR-4) was 1720 nM. The TGI (OVCAR-8) was 1030 nM, the TGI (786-0) was 398 nM and the TGI (SN12C) was 614 nM. It also gave a TGI (UO-31) of 731 nM, a TGI (DU-145) of 813 nM and a TGI (MCF7) of 984 nM. The TGI (NCI/ADR-RES) was 2270 nM, the TGI (HS578T) was 18900 nM and the TGI (MDA-MB-435) was 440 nM. The TGI (BT-549) was 379 nM, the TGI (T-47D) was 330 nM and the TGI (MDA-MB-468) was 590 nM.
